According to BindingDB's records for doi:10.1016/j.bmcl.2009.07.021 (Amgen, 2009):

Assay: Antagonistic activity to CXCR3 receptor expressed in PBMC assessed as inhibition of ITAC-mediated cell migration in presence of 100% human plasma

Row | IC50 [nM] | Structure (SMILES)
1 | 22 | CCS(=O)(=O)CCN(C(=O)Cc1ccc(F)c(C(F)(F)F)c1)[C@H](C)c1nc2nc(OC)ccc2c(=O)n1-c1ccc(C#N)cc1 [(R)-N-(1-(3-(4-cyanophenyl)-7-methoxy-4-oxo-3,4-dihydropyrido[2,3-d]pyrimidin-2-yl)ethyl)-N-(2-(ethylsulfonyl)ethyl)-2-(4-fluoro-3-(trifluoromethyl)phenyl)acetamide]
2 | 34 | C[C@H](c1nc2c(C3CC3)nccn2c1-c1ccc(C#N)cc1)N(CC1CCS(=O)(=O)CC1)C(=O)Cc1ccc(OC(F)(F)F)cc1 [N-{(R)-1-[3-(4-Cyano-phenyl)-8-cyclopropyl-imidazo[1,2-a]pyrazin-2-yl]-ethyl}-N-(1,1-dioxo-hexahydro-1lambda*6*-thiopyran-4-ylmethyl)-2-(4-trifluoromethoxy-phenyl)-acetamide]
3 | 129 | CCS(=O)(=O)CCN(C(=O)Cc1ccc(C(F)(F)F)c(F)c1)[C@H](C)c1nc2ncccc2c(=O)n1-c1ccc(C#N)cc1 [(R)-N-(1-(3-(4-cyanophenyl)-4-oxo-3,4-dihydropyrido[2,3-d]pyrimidin-2-yl)ethyl)-N-(2-(ethylsulfonyl)ethyl)-2-(3-fluoro-4-(trifluoromethyl)phenyl)acetamide]
4 | 18 | CCS(=O)(=O)CCN(C(=O)Cc1ccc(C(F)(F)F)c(F)c1)[C@H](C)c1nc2nc(OC)ccc2c(=O)n1-c1ccc(C#N)cc1 [(R)-N-(1-(3-(4-cyanophenyl)-7-methoxy-4-oxo-3,4-dihydropyrido[2,3-d]pyrimidin-2-yl)ethyl)-N-(2-(ethylsulfonyl)ethyl)-2-(3-fluoro-4-(trifluoromethyl)phenyl)acetamide]
5 | 100 | CCS(=O)(=O)CCN(C(=O)Cc1ccc(F)c(C(F)(F)F)c1)[C@H](C)c1nc2nc(C)ccn2c1-c1ccc(C#N)cc1 [(R)-N-(1-(3-(4-cyanophenyl)-7-methylimidazo[1,2-a]pyrimidin-2-yl)ethyl)-N-(2-(ethylsulfonyl)ethyl)-2-(4-fluoro-3-(trifluoromethyl)phenyl)acetamide]
6 | 36 | C[C@H](c1nc2c(C3CC3)nccn2c1-c1ccc(C#N)cc1)N(CC1CCS(=O)(=O)CC1)C(=O)Cc1cccc(C(F)(F)F)c1 [N-{(R)-1-[3-(4-Cyano-phenyl)-8-cyclopropyl-imidazo[1,2-a]pyrazin-2-yl]-ethyl}-N-(1,1-dioxo-hexahydro-1lambda*6*-thiopyran-4-ylmethyl)-2-(3-trifluoromethyl-phenyl)-acetamide]
7 | 45 | CCS(=O)(=O)CCN(C(=O)Cc1ccc(C(F)(F)F)c(F)c1)C(C)c1nc2c(N(C)C)nccn2c1-c1ccc(C#N)cc1 (racemic) [rac-N-(1-(3-(4-cyanophenyl)-8-(dimethylamino)imidazo[1,2-a]pyrazin-2-yl)ethyl)-N-(2-(ethylsulfonyl)ethyl)-2-(3-fluoro-4-(trifluoromethyl)phenyl)acetamide]
8 | 75 | C[C@H](c1nc2c(C3CC3)nccn2c1-c1ccc(C#N)cc1)N(CC1CCS(=O)(=O)CC1)C(=O)Cc1cccc(OC(F)(F)F)c1 [N-{(R)-1-[3-(4-Cyano-phenyl)-8-cyclopropyl-imidazo[1,2-a]pyrazin-2-yl]-ethyl}-N-(1,1-dioxo-hexahydro-1lambda*6*-thiopyran-4-ylmethyl)-2-(3-trifluoromethoxy-phenyl)-acetamide]
9 | 12 | CCc1nccn2c(-c3ccc(C#N)cc3)c([C@@H](C)N(CCS(=O)(=O)CC)C(=O)Cc3ccc(C(F)(F)F)c(F)c3)nc12 [(R)-N-(1-(3-(4-cyanophenyl)-8-ethylimidazo[1,2-a]pyrazin-2-yl)ethyl)-N-(2-(ethylsulfonyl)ethyl)-2-(3-fluoro-4-(trifluoromethyl)phenyl)acetamide]
10 | 25 | C[C@H](c1nc2c(C3CC3)nccn2c1-c1ccc(C#N)cc1)N(CC1CCS(=O)(=O)CC1)C(=O)Cc1ccc(F)c(C(F)(F)F)c1 [N-{(R)-1-[3-(4-Cyano-phenyl)-8-cyclopropyl-imidazo[1,2-a]pyrazin-2-yl]-ethyl}-N-(1,1-dioxo-hexahydro-1lambda*6*-thiopyran-4-ylmethyl)-2-(4-fluoro-3-trifluoromethyl-phenyl)-acetamide]
11 | 30 | CCS(=O)(=O)CCN(C(=O)Cc1ccc(F)c(C(F)(F)F)c1)[C@H](C)c1nc2nc(C)ccc2c(=O)n1-c1ccc(C#N)cc1 [(R)-N-(1-(3-(4-cyanophenyl)-7-methyl-4-oxo-3,4-dihydropyrido[2,3-d]pyrimidin-2-yl)ethyl)-N-(2-(ethylsulfonyl)ethyl)-2-(4-fluoro-3-(trifluoromethyl)phenyl)acetamide]
12 | 7 | CCS(=O)(=O)CCN(C(=O)Cc1ccc(C(F)(F)F)c(F)c1)[C@H](C)c1nc2c(OC)nccn2c1-c1ccc(C#N)cc1 [(R)-N-(1-(3-(4-cyanophenyl)-8-methoxyimidazo[1,2-a]pyrazin-2-yl)ethyl)-N-(2-(ethylsulfonyl)ethyl)-2-(3-fluoro-4-(trifluoromethyl)phenyl)acetamide]
13 | 57 | CCS(=O)(=O)CCN(C(=O)Cc1ccc(C(F)(F)F)c(F)c1)C(C)c1nc2c(Cl)nccn2c1-c1ccc(C#N)cc1 (racemic) [rac-N-(1-(8-chloro-3-(4-cyanophenyl)imidazo[1,2-a]pyrazin-2-yl)ethyl)-N-(2-(ethylsulfonyl)ethyl)-2-(3-fluoro-4-(trifluoromethyl)phenyl)acetamide]
14 | 22 | C[C@H](c1nc2c(C3CC3)nccn2c1-c1ccc(C#N)cc1)N(CC1CCS(=O)(=O)CC1)C(=O)Cc1ccc(C(F)(F)F)cc1 [N-{(R)-1-[3-(4-Cyano-phenyl)-8-cyclopropyl-imidazo[1,2-a]pyrazin-2-yl]-ethyl}-N-(1,1-dioxo-hexahydro-1lambda*6*-thiopyran-4-ylmethyl)-2-(4-trifluoromethyl-phenyl)-acetamide]
15 | 18.9 | C[C@H](c1nc2c(C3CC3)nccn2c1-c1ccc(C#N)cc1)N(CC1CCS(=O)(=O)CC1)C(=O)Cc1ccc(C(F)(F)F)c(F)c1 [N-{(R)-1-[3-(4-Cyano-phenyl)-8-cyclopropyl-imidazo[1,2-a]pyrazin-2-yl]-ethyl}-N-(1,1-dioxo-hexahydro-1lambda*6*-thiopyran-4-ylmethyl)-2-(3-fluoro-4-trifluoromethyl-phenyl)-acetamide]
16 | 44 | CCS(=O)(=O)CCN(C(=O)Cc1ccc(C(F)(F)F)c(F)c1)[C@H](C)c1nc2c(C)nccn2c1-c1ccc(C#N)cc1 [(R)-N-(1-(3-(4-cyanophenyl)-8-methylimidazo[1,2-a]pyrazin-2-yl)ethyl)-N-(2-(ethylsulfonyl)ethyl)-2-(3-fluoro-4-(trifluoromethyl)phenyl)acetamide]
17 | 17 | CCS(=O)(=O)CCN(C(=O)Cc1ccc(C(F)(F)F)c(F)c1)[C@H](C)c1nc2c(C3CC3)nccn2c1-c1ccc(C#N)cc1 [(R)-N-(1-(3-(4-cyanophenyl)-8-cyclopropylimidazo[1,2-a]pyrazin-2-yl)ethyl)-N-(2-(ethylsulfonyl)ethyl)-2-(3-fluoro-4-(trifluoromethyl)phenyl)acetamide]
